Data as given in ChEMBL document CHEMBL5360552, “Potential RNA-dependent RNA polymerase (RdRp) inhibitors as prospective drug candidates for SARS-CoV-2” (Eur J Med Chem, 2023).

Columns and labels:
SARS-CoV-2 [1] = assay: Antiviral activity against SARS-CoV-2 infected in african green monkey Vero E6 cells pretreated for 1 hrs followed by viral infection for 2 hrs and replaced with fresh medium for 48 hrs post infection by qRT-PCR; type: functional, organism-based; settings: Severe acute respiratory syndrome coronavirus 2, Vero C1008
SARS-CoV-2 [2] = assay: Antiviral activity against SARS-CoV-2 omicron variant infected in human Calu-3 cells of organoid assessed as intracellular viral RNA level measured after 48 hrs by qRT-PCR analysis; type: functional, organism-based; settings: Severe acute respiratory syndrome coronavirus 2, Calu-3, 48 h

SMILES	EC50 (SARS-CoV-2 [1])	IC50 (SARS-CoV-2 [2])
CCC(CC)COC(=O)[C@H](C)N[P@](=O)(OC[C@H]1O[C@@](C#N)(c2ccc3c(N)ncnn23)[C@H](O)[C@@H]1O)Oc1ccccc1	770 nM	
CC(C)C(=O)OC[C@H]1O[C@@H](n2cc/c(=N\O)[nH]c2=O)[C@H](O)[C@@H]1O [MOLNUPIRAVIR]		756 nM
